Test results reported in publication PMC3888718, “F-18 Labeled Vasoactive Intestinal Peptide Analogue in the PET Imaging of Colon Carcinoma in Nude Mice” (BioMed Research International, 2013).
Where two headings read alike, the source gives them in different places. Where a SMILES comes first, the peptide text is derived from it. The star is where a group is joined. Benzoyl(4-F) = O=C(c1ccc(F)cc1)*

What was measured:
[1] = tissue distribution test in normal BALB/C mice; format: in vivo; conditions: 100 μCi tail vein, 5-120 min, γ counter, n = 5 per group
Experimental: All animal experiments followed the laboratory animal specifications of Zhongshan Hospital, Fudan University. In order to obtain preliminary in vivo pharmacokinetics data of this radiolabeled polypeptide, 100 μL 3.7 MBq (100 μCi) [F-18]FB-[R^8,15,21, L^17]-VIP was injected into each normal BALB/C mouse through tail vein. 20 mice were assigned to 4 groups evenly. At 5, 30, 60, and 120 min following injection, they were sacrificed under anesthesia. Mice in each group were immediately subject to autopsy, where the organs and tissues of interest, including brain, liver, kidneys, heart, lungs, spleen, stomach, small intestine, muscles, bones, and blood, were collected. All the tissue samples were weighed and their counting were measured by γ counter, so that the percent injected dose per each gram of tissue (% ID/g) was derived.

[2] = micro-PET imaging in C26 tumor bearing mice; format: in vivo; conditions: nude mice, tumor and muscle, total radioactivity, micro-PET; for tissue to tissue ratio at 1 h: 60 min after injection
Experimental: (§1) C26 tumor bearing mice were obtained by right subaxillary implantation and were used in PET imaging test when the tumor had grown to the size of about 1 cm. PET imaging test in small animals was performed on a micro-PET R4 scanner (Concorde Microsystems, Siemens, Germany). After sodium pentobarbital anesthesia, C26 tumor bearing mice were injected with 1.5 MBq (40 μCi) [F-18]FB-[R^8,15,21, L^17]-VIP and placed in the central zone of the micro-PET device separately at 5 min, 60 min, and 120 min following injection. They underwent static scanning for 10 min at different points. The original data obtained were transformed into 2D image by Fourier transform and 2D FBP reconstruction.
(§2) Blocking experiment was conducted to explore whether [F-18]FB-[R^8,15,21, L^17]-VIP was receptor-specific. 100 μg of nonlabeled VIP polypeptide mixed with 40 μCi [F-18]FB-[R^8,15,21, L^17]-VIP was injected into each C26 tumor bearing mouse. The imaging experiment with blocking was performed 60 min following injection, using scanning for 10 min and the same procedures and data treatment process as above.

C26 colon carcinoma = assay: micro-PET imaging in C26 tumor bearing mice; format: in vivo; conditions: micro-PET images, C26 tumor bearing mice
Experimental: as §1, §2

VIP receptor = conditions: cited from earlier work
Description: (§3) Since Virgolin initially reported use of ^123I labeled VIP in the imaging study of tumor VIP receptors, several potential ^123I, ^99 mTc, F-18, and ^64Cu labeled VIP analogues have been developed. […] Therefore, our early efforts mainly focused on the structural modification for improving in vivo stability of VIP polypeptide and a series of studie ...

[3] = cited from earlier work
Description: as §3

[4] = tested on: colon carcinoma cells LS174T; conditions: mouse, in vivo; cited from earlier work
Description: Like other neuropeptides, VIP is quickly metabolized in liver and excreted from kidneys. Given this, when VIP is to be used as an imaging agent, chemical modification of its structure is mandatory to extend the biological half-life in order to meet the imaging requirement. […] Pallela et al. labeled VIP analogue (TP3654) by ^99mTc and conducted animal distribution and imaging tests in nude mice transpla ...

CC[C@H](C)[C@H](NC(=O)[C@H](CO)NC(=O)[C@H](CC(N)=O)NC(=O)[C@H](CC(C)C)NC(=O)[C@H](Cc1ccc(O)cc1)NC(=O)[C@H](CCCNC(=N)N)NC(=O)[C@H](CCCCNC(=O)c1ccc(F)cc1)NC(=O)[C@@H](NC(=O)[C@H](C)NC(=O)[C@H](CC(C)C)NC(=O)[C@H](CCC(N)=O)NC(=O)[C@H](CCCNC(=N)N)NC(=O)[C@H](CCCNC(=N)N)NC(=O)[C@H](CC(C)C)NC(=O)[C@H](CCCNC(=N)N)NC(=O)[C@@H](NC(=O)[C@H](Cc1ccc(O)cc1)NC(=O)[C@H](CC(N)=O)NC(=O)[C@H](CCCNC(=N)N)NC(=O)[C@@H](NC(=O)[C@H](Cc1ccccc1)NC(=O)[C@@H](NC(=O)[C@H](C)NC(=O)[C@H](CC(=O)O)NC(=O)[C@H](CO)NC(=O)[C@@H](N)Cc1c[nH]cn1)C(C)C)[C@@H](C)O)[C@@H](C)O)C(C)C)C(=O)N[C@@H](CC(C)C)C(=O)N[C@@H](CC(N)=O)C(N)=O [[F-18]FB-[R^8,15,21, L^17]-VIP] (H-HSDAVFTRNYTRLRRQLAVK(Benzoyl(4-F))RYLNSILN-NH2; N-terminus assumed)
bone absorption (defluorination stability) [1]: low bone absorption
tissue to tissue ratio at 5 min ([2]; mouse, iv, 40 uCi, C26 tumor bearing mice, 40 μCi i.v., 5 min after injection, 10 min static scan, read-out: tumor-to-muscle ratio (T/M)): 1.84
tissue to tissue ratio at 1 h ([2]; mouse, iv, 40 uCi, C26 tumor bearing mice, 40 μCi, unblocked, read-out: tumor-to-muscle ratio (T/M)): 3.03
tissue to tissue ratio at 2 h ([2]; mouse, iv, 40 uCi, C26 tumor bearing mice, 40 μCi, 120 min after injection, read-out: tumor-to-muscle ratio (T/M)): 3.74
tissue to tissue ratio at 1 h ([2]; C26 tumor bearing mouse, 40 μCi mixed with 100 μg nonlabeled VIP, read-out: tumor-to-muscle ratio (T/M), blocking experiment): 1.01
passage through the blood-brain barrier (C26 colon carcinoma): could not pass through the blood-brain barrier
bone absorption (in vivo defluorination stability) (C26 colon carcinoma; up until 120 min): no marked bone absorption

H-HSDAVFTRNYTRLRRQLAVKRYLNSILN-NH2 [[R^8,15,21, L^17]-VIP, VIP analogue, 28-residue peptide amide, precursor for F-18 labeling]
receptor affinity in comparison to native VIP (VIP receptor): higher
in vivo stability in comparison to native VIP [3]: higher

^125I-VIP: ^125I labeled vasoactive intestinal peptide
tumor/blood ratio (T/B) [4]: 0.88 ± 0.16
tumor/muscle ratio (T/M) [4]: 0.38 ± 0.56
